Experimental data as given in PubChem BioAssay AID2060488 (Molecular Pharmacology Branch, DTP, NCI, 2025).

System: 966289-007-R4-J1-PDC complex spheroid viability
Assay: Anticancer human tumor 966289-007-R4-J1-PDC patient-derived pancreatic adenocarcinoma cell line growth inhibition [GQUAD]
Conditions: for IC50: curve of first compound; for viability, T/C: stronger effect = lower value
Procedure, shortened: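 Tumor cells were grown as complex spheroids with HUVEC endothelial cells and mesenchymal stem cells as stroma. G-quadruplex stabilizers were combined with targeted agents over half-log dilutions from near the clinical Cmax, or from 10 microM.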

[1] = second compound 0.0316 µM, first compound 0.0316 µM
[2] = second compound 0.0316 µM, first compound 0.1 µM
[3] = second compound 0.0316 µM, first compound 0.316 µM
[4] = second compound 0.0316 µM, first compound 1 µM
[5] = second compound 0.0316 µM, first compound 3.16 µM
[6] = second compound 0.0316 µM, first compound 10 µM
[7] = second compound 0.1 µM, first compound 0.0316 µM
[8] = second compound 0.1 µM, first compound 0.1 µM
[9] = second compound 0.1 µM, first compound 0.316 µM
[10] = second compound 0.1 µM, first compound 1 µM
[11] = second compound 0.1 µM, first compound 3.16 µM
[12] = second compound 0.1 µM, first compound 10 µM
[13] = second compound 0.316 µM, first compound 0.0316 µM
[14] = second compound 0.316 µM, first compound 0.1 µM
[15] = second compound 0.316 µM, first compound 0.316 µM
[16] = second compound 0.316 µM, first compound 1 µM
[17] = second compound 0.316 µM, first compound 3.16 µM
[18] = second compound 0.316 µM, first compound 10 µM
[19] = second compound 1 µM, first compound 0.0316 µM
[20] = second compound 1 µM, first compound 0.1 µM
[21] = second compound 1 µM, first compound 0.316 µM
[22] = second compound 1 µM, first compound 1 µM
[23] = second compound 1 µM, first compound 3.16 µM
[24] = second compound 1 µM, first compound 10 µM
[25] = second compound 3.16 µM, first compound 0.0316 µM
[26] = second compound 3.16 µM, first compound 0.1 µM
[27] = second compound 3.16 µM, first compound 0.316 µM
[28] = second compound 3.16 µM, first compound 1 µM
[29] = second compound 3.16 µM, first compound 3.16 µM
[30] = second compound 3.16 µM, first compound 10 µM
[31] = second compound 10 µM, first compound 0.0316 µM
[32] = second compound 10 µM, first compound 0.1 µM
[33] = second compound 10 µM, first compound 0.316 µM
[34] = second compound 10 µM, first compound 1 µM
[35] = second compound 10 µM, first compound 3.16 µM
[36] = second compound 10 µM, first compound 10 µM
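Note: spheroids exposed to the agents for seven days before readout.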
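Throughout, for viability, T/C: percent viability relative to DMSO vehicle control wells taken as 100%.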

COc1ncnc(C2CC2)c1-c1ncc2cnn(Cc3ccc(-c4nc(C(F)(F)F)cn4C(C)C)cc3)c2n1 + Cc1[nH]c2ccc(F)cc2c1-c1nc2c3cccnc3c3ncccc3c2[nH]1
IC50 (second compound 0.0316 µM): > 10000 nM
IC50 (second compound 0.1 µM): > 10000 nM
IC50 (second compound 0.316 µM): > 10000 nM
IC50 (second compound 1 µM): > 10000 nM
IC50 (second compound 3.16 µM): > 10000 nM
IC50 (second compound 10 µM): > 10000 nM
viability, T/C [1]: 106%
viability, T/C [2]: 99.2%
viability, T/C [3]: 104%
viability, T/C [4]: 99.7%
viability, T/C [5]: 104%
viability, T/C [6]: 107%
viability, T/C [7]: 106%
viability, T/C [8]: 105%
viability, T/C [9]: 104%
viability, T/C [10]: 99.6%
viability, T/C [11]: 100%
viability, T/C [12]: 107%
viability, T/C [13]: 101%
viability, T/C [14]: 99.8%
viability, T/C [15]: 107%
viability, T/C [16]: 100%
viability, T/C [17]: 102%
viability, T/C [18]: 96.5%
viability, T/C [19]: 98.2%
viability, T/C [20]: 105%
viability, T/C [21]: 107%
viability, T/C [22]: 104%
viability, T/C [23]: 108%
viability, T/C [24]: 110%
viability, T/C [25]: 107%
viability, T/C [26]: 106%
viability, T/C [27]: 108%
viability, T/C [28]: 108%
viability, T/C [29]: 109%
viability, T/C [30]: 110%
viability, T/C [31]: 107%
viability, T/C [32]: 104%
viability, T/C [33]: 109%
viability, T/C [34]: 104%
viability, T/C [35]: 111%
viability, T/C [36]: 111%

Cc1[nH]c2ccccc2c1CCNCc1ccc(/C=C/C(=O)NO)cc1 + Cc1[nH]c2ccc(F)cc2c1-c1nc2c3cccnc3c3ncccc3c2[nH]1
IC50 (second compound 0.0316 µM): 76 nM
IC50 (second compound 0.1 µM): 92.8 nM
IC50 (second compound 0.316 µM): 95.8 nM
IC50 (second compound 1 µM): 127 nM
IC50 (second compound 3.16 µM): 79.7 nM
IC50 (second compound 10 µM): 104 nM
viability, T/C (second compound 0.0316 µM, first compound 0.000999 µM): 110%
viability, T/C (second compound 0.0316 µM, first compound 0.00316 µM): 104%
viability, T/C (second compound 0.0316 µM, first compound 0.00999 µM): 107%
viability, T/C [1]: 103%
viability, T/C (second compound 0.0316 µM, first compound 0.0999 µM): 33.6%
viability, T/C [3]: 4.95%
viability, T/C (second compound 0.1 µM, first compound 0.000999 µM): 111%
viability, T/C (second compound 0.1 µM, first compound 0.00316 µM): 109%
viability, T/C (second compound 0.1 µM, first compound 0.00999 µM): 111%
viability, T/C [7]: 105%
viability, T/C (second compound 0.1 µM, first compound 0.0999 µM): 46.2%
viability, T/C [9]: 5.29%
viability, T/C (second compound 0.316 µM, first compound 0.000999 µM): 106%
viability, T/C (second compound 0.316 µM, first compound 0.00316 µM): 108%
viability, T/C (second compound 0.316 µM, first compound 0.00999 µM): 113%
viability, T/C [13]: 107%
viability, T/C (second compound 0.316 µM, first compound 0.0999 µM): 47.8%
viability, T/C [15]: 6.15%
viability, T/C (second compound 1 µM, first compound 0.000999 µM): 98.5%
viability, T/C (second compound 1 µM, first compound 0.00316 µM): 103%
viability, T/C (second compound 1 µM, first compound 0.00999 µM): 111%
viability, T/C [19]: 108%
viability, T/C (second compound 1 µM, first compound 0.0999 µM): 61.5%
viability, T/C [21]: 5.78%
viability, T/C (second compound 3.16 µM, first compound 0.000999 µM): 107%
viability, T/C (second compound 3.16 µM, first compound 0.00316 µM): 114%
viability, T/C (second compound 3.16 µM, first compound 0.00999 µM): 117%
viability, T/C [25]: 110%
viability, T/C (second compound 3.16 µM, first compound 0.0999 µM): 35.4%
viability, T/C [27]: 5.51%
viability, T/C (second compound 10 µM, first compound 0.000999 µM): 110%
viability, T/C (second compound 10 µM, first compound 0.00316 µM): 104%
viability, T/C (second compound 10 µM, first compound 0.00999 µM): 114%
viability, T/C [31]: 93.5%
viability, T/C (second compound 10 µM, first compound 0.0999 µM): 52.2%
viability, T/C [33]: 5.13%

O=C(NO)c1cnc(N2CCN(S(=O)(=O)c3ccc4ccccc4c3)CC2)nc1 + Cc1[nH]c2ccc(F)cc2c1-c1nc2c3cccnc3c3ncccc3c2[nH]1
IC50 (second compound 0.0316 µM): 682 nM
IC50 (second compound 0.1 µM): 847 nM
IC50 (second compound 0.316 µM): 1170 nM
IC50 (second compound 1 µM): 1250 nM
IC50 (second compound 3.16 µM): 943 nM
IC50 (second compound 10 µM): 948 nM
viability, T/C [1]: 100%
viability, T/C [2]: 96.8%
viability, T/C [3]: 112%
viability, T/C [4]: 23.5%
viability, T/C [5]: 1.82%
viability, T/C [6]: 0.49%
viability, T/C [7]: 104%
viability, T/C [8]: 97.4%
viability, T/C [9]: 110%
viability, T/C [10]: 41%
viability, T/C [11]: 1.2%
viability, T/C [12]: 0.14%
viability, T/C [13]: 103%
viability, T/C [14]: 97.2%
viability, T/C [15]: 110%
viability, T/C [16]: 57.5%
viability, T/C [17]: 3.37%
viability, T/C [18]: 0.12%
viability, T/C [19]: 94.7%
viability, T/C [20]: 102%
viability, T/C [21]: 115%
viability, T/C [22]: 61.3%
viability, T/C [23]: 4.62%
viability, T/C [24]: 0.3%
viability, T/C [25]: 101%
viability, T/C [26]: 111%
viability, T/C [27]: 111%
viability, T/C [28]: 46.9%
viability, T/C [29]: 3.24%
viability, T/C [30]: 0.41%
viability, T/C [31]: 112%
viability, T/C [32]: 104%
viability, T/C [33]: 115%
viability, T/C [34]: 47.1%
viability, T/C [35]: 2.05%
viability, T/C [36]: 0.25%

COc1ccc([C@@H](O)c2cc(-c3ncnc4cc(N5CCOCC5)ccc34)c(F)cc2Cl)nn1 + Cc1cnc(CNC(=O)c2c(=O)c3ccc(N4CCCN(C)CC4)nc3n3c2sc2ccccc23)cn1
IC50 (second compound 0.0316 µM): 826 nM
IC50 (second compound 0.1 µM): < 31.6 nM
IC50 (second compound 0.316 µM): < 31.6 nM
IC50 (second compound 1 µM): < 31.6 nM
IC50 (second compound 3.16 µM): < 31.6 nM
IC50 (second compound 10 µM): < 31.6 nM
viability, T/C [1]: 119%
viability, T/C [2]: 109%
viability, T/C [3]: 107%
viability, T/C [4]: 38.6%
viability, T/C [5]: 36%
viability, T/C [6]: 26%
viability, T/C [7]: 47.7%
viability, T/C [8]: 37.2%
viability, T/C [9]: 21.7%
viability, T/C [10]: 11.2%
viability, T/C [11]: 12.2%
viability, T/C [12]: 13.2%
viability, T/C [13]: 14.1%
viability, T/C [14]: 15%
viability, T/C [15]: 10.7%
viability, T/C [16]: 9.67%
viability, T/C [17]: 12.2%
viability, T/C [18]: 10.4%
viability, T/C [19]: 7.16%
viability, T/C [20]: 7.76%
viability, T/C [21]: 6.22%
viability, T/C [22]: 5.28%
viability, T/C [23]: 7.22%
viability, T/C [24]: 6.81%
viability, T/C [25]: 5.73%
viability, T/C [26]: 5.42%
viability, T/C [27]: 4.82%
viability, T/C [28]: 4.3%
viability, T/C [29]: 6.69%
viability, T/C [30]: 6.78%
viability, T/C [31]: 0.11%
viability, T/C [32]: 0.13%
viability, T/C [33]: 0.3%
viability, T/C [34]: 0.15%
viability, T/C [35]: 0.42%
viability, T/C [36]: 0.15%
